Tests used:
Experiment in all cases: relative viability (nuclei count vs DMSO), 5 days (fraction); higher = more cells survive
Vandetanib + Trametinib = compound: COc1cc2/c(=N/c3ccc(Br)cc3F)nc[nH]c2cc1OCC1CCN(C)CC1 [Vandetanib] + CC(=O)Nc1cccc(-n2c(=O)n(C3CC3)c(=O)c3c(Nc4ccc(I)cc4F)n(C)c(=O)c(C)c32)c1 [Trametinib] (partner 0.02 µM)
Method in brief: (§1)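 Values are medians from duplicate plates. Each reflects relative viability, defined as the nuclei count of treated wells over that of vehicle wells. Lung cancer cell lines in 1536-well plates were pin-tool dosed one day after seeding with one drug alone or with a fixed anchor-drug dose plus five library-drug doses (not always all listed) in √10 steps, then fixed, stained and imaged at 4× after 5 days.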

CUDC-101 + Bortezomib = compound: C#Cc1cccc(Nc2ncnc3cc(OC)c(OCCCCCCC(=O)NO)cc23)c1 [CUDC-101] + CC(C)C[C@H](NC(=O)[C@H](Cc1ccccc1)NC(=O)c1cnccn1)B(O)O [Bortezomib] (partner 0.002 µM)
Method in brief: as §1

NVP-TAE684 + Luminespib = compound: COc1cc(N2CCC(N3CCN(C)CC3)CC2)ccc1Nc1ncc(Cl)c(Nc2ccccc2S(=O)(=O)C(C)C)n1 [NVP-TAE684] + CCNC(=O)c1noc(-c2cc(C(C)C)c(O)cc2O)c1-c1ccc(CN2CCOCC2)cc1 [Luminespib] (partner 0.01 µM)
Method in brief: as §1

NVP-TAE684 + Foretinib = compound: COc1cc(N2CCC(N3CCN(C)CC3)CC2)ccc1Nc1ncc(Cl)c(Nc2ccccc2S(=O)(=O)C(C)C)n1 [NVP-TAE684] + COc1cc2c(Oc3ccc(NC(=O)C4(C(=O)Nc5ccc(F)cc5)CC4)cc3F)ccnc2cc1OCCCN1CCOCC1 [Foretinib] (partner 0.25 µM)
Method in brief: as §1

Cell Line	relative viability (Vandetanib + Trametinib; first compound 0.02 µM)	relative viability (Vandetanib + Trametinib; first compound 0.06325 µM)	relative viability (Vandetanib + Trametinib; first compound 0.2 µM)	relative viability (Vandetanib + Trametinib; first compound 0.6325 µM)	relative viability (Vandetanib + Trametinib; first compound 2 µM)	relative viability (CUDC-101 + Bortezomib; first compound 0.01 µM)	relative viability (CUDC-101 + Bortezomib; first compound 0.03162 µM)	relative viability (CUDC-101 + Bortezomib; first compound 0.1 µM)	relative viability (CUDC-101 + Bortezomib; first compound 0.3162 µM)	relative viability (CUDC-101 + Bortezomib; first compound 1 µM)	relative viability (NVP-TAE684 + Luminespib; first compound 0.2 µM)	relative viability (NVP-TAE684 + Luminespib; first compound 0.6325 µM)	relative viability (NVP-TAE684 + Luminespib; first compound 2 µM)	relative viability (NVP-TAE684 + Foretinib; first compound 0.2 µM)	relative viability (NVP-TAE684 + Foretinib; first compound 0.6325 µM)	relative viability (NVP-TAE684 + Foretinib; first compound 2 µM)
HCC-827	0.568	0.457	0.501	0.266	0.16	1.08	1.07	0.788	0.439	0.344	0.52	0.613	0.65	1.16	1.02	0.874
NCI-H2405	0.63	0.458	0.714	0.653	0.616	0.969	1.04	0.936	1.02	0.982	0.703	0.694	0.386	1	0.966	0.575
NCI-H650	0.995	0.927	0.947	0.929	0.981	0.834	0.917	0.87	0.459	0.643	0.776	0.682	0.489	0.983	1	0.753
NCI-H838	0.528	0.463	0.539	0.484	0.533	0.872	0.728	0.879	1.25	0.533	0.27	0.275	0.282	0.971	1.05	0.628
NCI-H520	0.627	0.642	0.577	0.687	0.68	0.761		0.253	0.252	0.116	0.189	0.219	0.219	0.712	0.979	0.51
HOP-62	0.354	0.368	0.36	0.4	0.363	0.605	0.773	1.09	0.667	0.473	1.03	0.816	0.882	1.21	1.12	1.12
NCI-H1651	0.822	0.818	0.83	0.876	0.727	1.04	0.946	0.957	0.912	0.921	1.24		0.693	0.802	0.883	0.774
NCI-H460	0.141	0.147	0.157	0.148	0.123	1.13	1.04	1.09	1.11	1.18	0.0418	0.0325	0.0305	1.2	1.02	0.817
NCI-H1734	0.639	0.694	0.667	0.673	0.709	1.12	0.919	0.874	0.956	0.478	0.221	0.164	0.166	0.802	0.824	0.354
NCI-H1915	0.29	0.291	0.29	0.329	0.292	1.01	1.01	0.982	0.936	0.836	0.631	0.821	0.699	1.04	1.1	0.902
NCI-H661	0.55	0.543	0.63	0.601	0.532	1.09	0.664	0.892	0.928	0.8	1	0.883		1.19	1.05	0.779
NCI-H2228	0.511	0.386	0.561	0.64	0.28	1.11	1.2	1.18	0.97	0.279	0.142	0.116	0.0834	0.445	0.238	0.123
NCI-H1975	0.356	0.344	0.378	0.35	0.365	0.418	0.361	0.427	0.362	0.165	0.23	0.138	0.167	1.2	0.911	0.497
NCI-H2087	0.211	0.221	0.23	0.213	0.2	0.813	0.871	0.614	0.754	0.445	0.146	0.205	0.151	1.05	1.2	0.638
LCLC-97TM1	0.201	0.217	0.202	0.192	0.165	0.629	0.308	0.527	0.546	0.28	0.706		0.128	0.933	0.897	0.278
EPLC-272H	0.303	0.242	0.289	0.293	0.255	0.729	1	0.882	0.627	0.384	0.185	0.382	0.217	0.756	0.639	0.247

Cell Line	relative viability (Vandetanib + Trametinib; first compound 0.02 µM)	relative viability (Vandetanib + Trametinib; first compound 0.06325 µM)	relative viability (Vandetanib + Trametinib; first compound 0.2 µM)	relative viability (Vandetanib + Trametinib; first compound 0.6325 µM)	relative viability (Vandetanib + Trametinib; first compound 2 µM)	relative viability (CUDC-101 + Bortezomib; first compound 0.01 µM)	relative viability (CUDC-101 + Bortezomib; first compound 0.03162 µM)	relative viability (CUDC-101 + Bortezomib; first compound 0.1 µM)	relative viability (CUDC-101 + Bortezomib; first compound 0.3162 µM)	relative viability (CUDC-101 + Bortezomib; first compound 1 µM)	relative viability (NVP-TAE684 + Luminespib; first compound 0.2 µM)	relative viability (NVP-TAE684 + Luminespib; first compound 0.6325 µM)	relative viability (NVP-TAE684 + Luminespib; first compound 2 µM)	relative viability (NVP-TAE684 + Foretinib; first compound 0.2 µM)	relative viability (NVP-TAE684 + Foretinib; first compound 0.6325 µM)	relative viability (NVP-TAE684 + Foretinib; first compound 2 µM)
CAL-12T	0.342	0.3	0.316	0.242	0.305	1.04	1.18	0.983	0.926	0.741	0.185	0.655	0.0938	1.05	1.11	0.233
NCI-H1755	0.749	0.731	0.794	0.749	0.751	0.985	1.06	0.88	0.933	0.79	0.304	0.272	0.445	1.03	0.897	0.761
H3255	0.614	0.577	0.604	0.463	0.245	0.743	0.736	0.32	0.541	0.186	0.897	0.828	0.765	0.882	0.804	0.631
NCI-H441	0.527	0.467	0.43	0.405	0.351	0.662	0.433	0.541	0.593	0.335	0.315	0.313	0.36	0.892	0.832	0.382
SW 1573	0.59	0.568		0.598	0.615	1.23	1.13	1.13	1.27	0.914	0.185	0.0996	0.0857	0.916	0.951	0.599
NCI-H2023	0.498	0.507		0.556	0.49	0.932	0.935	1.08	1.26	0.844	0.792	0.828	0.215	0.656	0.739	0.461
ChaGo-K-1	0.878	0.87	0.253	0.929	0.866	1.22	1.31	0.821	1.03	0.963	0.661	0.67	0.44	0.943	0.818	0.538
NCI-H2126	0.58	0.546	0.556	0.502	0.504	1.12	1.14	1.1	1.08	1.01	0.94	0.845	0.398	1.13	1.22	0.84
RERF-LC-KJ	0.808	0.933	0.528	0.831	0.688	1.2	1.07	1.09	1.14	0.97	1.65	1.21	0.587	0.853	0.931	0.771
NCI-H3122	0.208	0.186	0.113	0.259	0.204	1.06	0.984	1.05	1.01	1.01	0.0817	0.0775	0.068	0.218	0.274	0.101
NCI-H322M	0.513	0.476	0.516	0.55	0.486	1.15	1.44	1.18	1.08	0.776	0.779	0.751	0.432	0.828	0.827	0.565
NCI-H647	0.458	0.474	0.469	0.451	0.436	1.08	0.948	0.871	0.724	0.119	0.133	0.108	0.264	1.09	1.21	1.16
EMC-BAC-2	1.01	0.844	0.872	0.902	0.822	1.06	1.05	1.09	1.18	0.869		1.21	0.824	0.958	0.977	0.467
PC-14	0.725	0.51	0.071	0.109	0.0866	1.07	0.978	0.89	0.596	0.219	0.157		0.144	0.689	1.12	1.03
201T	0.715	0.68	0.751	0.696	0.676	1.08	1.06	1.09	1.11	1.08	0.964	0.992	0.69	1.12	0.96	0.403
LXF-289	0.681	0.663	0.606	0.69	0.677	1.02	0.987	0.972	0.953	0.704	0.583	0.776	0.425	1.05	0.958	0.715

Reference: the supplement of paper PMC10307832
